Test results reported in patent US12421199B2, “Sphingosine 1 phosphate receptor modulators” (RECEPTOS LLC, priority 2020, dated 2025).

What was measured:
S1P1 = molecular target: T1, S1P1 (Homo sapiens, UniProt P21453); test: [35S]-GTPγS binding assay, S1P1; format: biochemical; conditions: CHO-S1P receptor membranes; for Emax: control S1P, read-out: S1P1 % Efficacy
T1 construct: expressed in transfected cells; host or cells: CHO cell membranes
Experimental: (§1) Binding assays for [35S]-GTPTS were performed in 96-well non-binding surface plates with a final volume of 200 μL. The test compounds were serial diluted in DMSO and added to assay plates using a Tecan D300E digital printer with a total volume of 0.4 μL. The control sphingosine-1-phosphate (S1P) was prepared separately by preparing a 400 μM stock solution from a 100 nmol pellet of S1P in 10 mM Na2CO3 with 2% […]. The serial dilution of S1P was done using complete assay buffer (20 mM HEPES, 10 mM MgCl2, 100 mM NaCl, 1 mM EDTA, 0.1% fatty acid free bovine serum albumin [BSA], and 30 μg/mL saponin, pH7.4) and transferred to wells already containing 0.4 μL DMSO. All the wells were then loaded to a total volume of 40 μL of complete assay buffer, except the non-specific binding (NSB) wells. For NSB wells, 40 µL/well of 50 μM GTPTS (Sigma Aldrich, cat #G8634, St. Louis, MO) was added to wells containing 0.4 μL of DMSO. The assay was started by the addition of 120 μL/well of CHO-S1P receptor membrane solution containing 40 μg/mL of membrane protein, 16.67 μM guanosine diphosphate (GDP; Sigma Aldrich, cat #G7127, St. Louis, MO), and 2.5 mg/mL of WGA PVT SPA beads in complete buffer. Assay plates were then sealed and incubated at room temperature with gentle agitation for 30 minutes. Next, 40 μL/well of 1 nM of [^35S]-GTPTS (PerkinElmer, cat #NEG030X250UC, Waltham, MA) in basic assay buffer (20 mM HEPES, 10 mM MgCl2, 100 mM NaCl, and 1 mM EDTA, pH7.4) was added to the assay plates to yield a final concentration of […] and the plates were further incubated for 40 minutes at room temperature with gentle agitation. The assay was terminated by centrifugation of the plates at 1000 rpm for 3 minutes using an Eppendorf 5810R centrifuge (Eppendorf, Hamburg, Germany) and G protein bound radioactivity was quantitated using a MicroBeta2 microplate scintillation counter (PerkinElmer, Waltham, MA).

S1P5 = molecular target: T2, S1P5 (Homo sapiens, UniProt Q9H228); test: [35S]-GTPγS binding assay, S1P5; format: biochemical; conditions: CHO-S1P receptor membranes; for Emax: control S1P, read-out: S1P5 % Efficacy
T2 construct: expressed in transfected cells; host or cells: CHO cell membranes
T2 sequence (Q9H228 whole entry, species assumed): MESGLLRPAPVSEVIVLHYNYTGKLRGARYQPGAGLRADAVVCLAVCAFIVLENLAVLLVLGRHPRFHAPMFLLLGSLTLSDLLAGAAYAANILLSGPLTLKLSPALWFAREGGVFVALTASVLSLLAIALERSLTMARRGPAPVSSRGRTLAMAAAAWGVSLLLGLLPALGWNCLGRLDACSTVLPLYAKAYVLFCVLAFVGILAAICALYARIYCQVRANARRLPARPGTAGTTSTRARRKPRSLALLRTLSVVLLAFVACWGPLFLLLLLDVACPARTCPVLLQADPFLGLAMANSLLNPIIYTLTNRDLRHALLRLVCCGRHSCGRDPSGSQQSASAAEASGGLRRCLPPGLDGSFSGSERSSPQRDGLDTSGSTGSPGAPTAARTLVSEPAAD
Experimental: as §1

T1 sequence (P21453 whole entry, species assumed): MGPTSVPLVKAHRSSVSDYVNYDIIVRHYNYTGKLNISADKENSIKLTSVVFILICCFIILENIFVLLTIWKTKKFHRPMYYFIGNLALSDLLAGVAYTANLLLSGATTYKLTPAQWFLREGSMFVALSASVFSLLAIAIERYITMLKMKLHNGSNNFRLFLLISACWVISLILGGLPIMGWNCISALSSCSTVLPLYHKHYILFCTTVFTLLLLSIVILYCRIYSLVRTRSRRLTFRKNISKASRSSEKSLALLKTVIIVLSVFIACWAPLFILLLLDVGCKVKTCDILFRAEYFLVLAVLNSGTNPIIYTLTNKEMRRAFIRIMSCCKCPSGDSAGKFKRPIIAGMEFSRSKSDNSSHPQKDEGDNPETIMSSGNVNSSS

| SMILES | EC50 (S1P1) | Emax (S1P1) | EC50 (S1P5) | Emax (S1P5) |
| --- | --- | --- | --- | --- |
| CCC1(O)CCc2c(-c3noc(-c4ccc(OC(C)C)c(C#N)c4)n3)cccc21 (centres unmarked) [compound 3, 5-(3-(1-ethyl-1-hydroxy-2,3-dihydro-1H-inden-4-yl)-1,2,4-oxadiazol-5-yl)-2-isopropoxybenzonitrile] | 14 nM | 97% | 147 nM | 80% |
| CC(C)Oc1ccc(-c2nc(-c3cccc4c3CCC4(O)C(C)C)no2)cc1C#N (centres unmarked) [compound 4, 5-(3-(1-hydroxy-1-isopropyl-2,3-dihydro-1H-inden-4-yl)-1,2,4-oxadiazol-5-yl)-2-isopropoxybenzonitrile] | 7 nM | 97% | 77 nM | 74% |
